This note sets out measurements from patent publication US9394299B2, “Rilyazine derivatives and compositions for the treatment of cancer” (Warner Babcock Institute for Green Chemistry, LLC, priority 2013, dated 2016).

Test [1] relates to SK-MEL-28 (Melanoma). The test can be described thus: NCI single point 10 μM, SK-MEL-28. Format: cell-based, human. The conditions noted are these: 10^−5 M. As to the method: (§1) The screening is a two-stage process, beginning with the evaluation of all compounds against 60 cell lines at a single dose of 10^−5 M.
(§2) The human tumor cell lines of the cancer screening panel are grown in RPMI 1640 medium containing 5% fetal bovine serum and 2 mM L-glutamine. Cells are inoculated into 96 well microtiter plates in 100 μL at plating densities ranging from 5,000 to 40,000 cells/well depending on the doubling time of individual cell lines. After cell inoculation, the microtiter plates are incubated at 37° C., 5% CO2, 95% air and 100% relative humidity for 24 h prior to addition of experimental drugs. […]
(§3) Following drug addition, the plates are incubated for an additional 48 h at 37° C., 5% CO2, 95% air, and 100% relative humidity. […] Bound stain is subsequently solubilized with 10 mM trizma base, and the absorbance is read on an automated plate reader at a wavelength of 515 nm. […]
(§4) For the 1-dose 60 cell testing, the Growth Percent is calculated for each cell line/drug combination from the absorbance measurement for the no-drug control (C), the absorbance at time zero (Tz) and the absorbance measurement after incubation of the cells in the presence of drug (Ti): Growth Percent=[(Ti−Tz)/(C−Tz)]×100 for cell line/drug combinations for which Ti≧Tz. […]

Test [2] deals with MCF-shWISP cells. The test can be described thus: MTT cell proliferation assay, MCF-shWISP. The class given is cell-based. The conditions noted are these: 72 h-exposure, 30-0.041 μM. As to the method: (§5) In vitro characterizing of the effects of rilyazine analogs on cell proliferation and apoptosis in the paired epithelial/mesenchymal lines (Colo205/Colo-R, DLD/DLD-SNAIL and MCF7/MCF7-WISP) was performed in an independent laboratory.
(§6) The Dose Preparation is based on a reconstitute in DMSO. The Concentration of the stock solution is 100 mM. Storage of the stock solution is under −80° C.
(§7) Working drug solution of rilyazine analogs: A stock solution of 100 mM OTX015 in DMSO was prepared and stored at −80° C. For growth inhibition studies, dilution series were prepared by (1) diluting stock solution into DMSO, then (2) diluting 1:300 in culture medium supplemented with 10% FBS giving a final concentration in 0.3% DMSO in the 96-well plates.
(§8) Cell lines. Cells lines were maintained in RPMI 1640 (PAA Laboratories, France) supplemented with 10% fetal bovine serum (FBS; PAA Laboratories, France), 2 mM glutamine (PAA Laboratories, France), 100 units/ml penicillin and 100 μg/ml streptomycin (PAA Laboratories, France). Cells were free of Mycoplasma.
(§9) Proliferation assays. Cell proliferation was determined using the MTT assay (3-[4,5-dimethylthiazol-2-yl]-2,5-diphenyltetrazolium bromide; Sigma-Aldrich, St. Louis, Mo.). […] After incubation, the supernatant was discarded, the cell pellet was resuspended in 0.1 mL DMSO, and the absorbance was measured at 560 nm using a microplate reader (Thermo, France). […]
(Formazan colour is commonly taken as a measure of viable cells.)

Test [3] concerns MCF-7 cells. Description: MTT cell proliferation assay, MCF-7. The conditions noted are these: 72 h-exposure, 30-0.041 μM. Format: cell-based. As to the method: as §5, §6, §7, §8, §9
In test [4] the test system is TK-10 (Renal Cancer). The test can be described thus: NCI single point 10 μM, TK-10. The conditions noted are these: 10^−5 M. Format: cell-based, human. As to the method:
as §1, §2, §3, §4

Regarding `S=c1c2ncccc2c(-c2ccccn2)nn1C1CCCCC1` [RL-4, 7-cyclohexyl-5-(pyridin-2-yl)pyrido[2,3-d]pyridazine-8(7H)-thione], the “Growth Percent” value in test [1] worked out at 93.53%; in test [4], 120.12%. In addition, the “anti-proliferative effects (in words)” value in test [2] and in test [3] was “dose-dependent anti-proliferative effects” each time.
